These results are taken from patent US11414425B2 (priority 2018, dated 2022).

Series [1] is classed as in vivo, Long Evans rats. The note with it: i.v. On the procedure:
(§1) Food and water were available ad libitum.
For plasma exposures, blood samples were centrifuged at 14000 rpm for 16 minutes. After centrifuging, 50 ul of supernatant (plasma) from each sample was added to 200 μl of acetonitrile plus 0.1% formic acid. […] Samples were sonicated for 5 minutes in an ultrasonic water bath, followed by centrifugation for 30 minutes, at 16000 RPM. 100 ul of supernatant was removed from each sample vial and placed in a new glass auto sample vial, followed by the addition of 300 μl of sterile water (pH 6.5).
Additional studies were conducted in aged Long-Evans rats in order to determine the exposures at the behaviorally relevant doses in the cognition studies. Exposure in young Long-Evans rats was also determined to bridge with the receptor occupancy studies that were conducted in young Long-Evans rats. Exposures in young and aged Long-Evans rats were relatively similar (Table 4, FIG. 4).

In a further series the target is T1, GABAAα5 receptor (Rattus norvegicus, UniProt P18508+P19969).
T1 construct: occupancy in the hippocampus (a region of high GABAAα5 receptor density); from tissue; host or cells: rat brain in vivo: hippocampus versus cerebellum
T1 sequence (P19969 32-464): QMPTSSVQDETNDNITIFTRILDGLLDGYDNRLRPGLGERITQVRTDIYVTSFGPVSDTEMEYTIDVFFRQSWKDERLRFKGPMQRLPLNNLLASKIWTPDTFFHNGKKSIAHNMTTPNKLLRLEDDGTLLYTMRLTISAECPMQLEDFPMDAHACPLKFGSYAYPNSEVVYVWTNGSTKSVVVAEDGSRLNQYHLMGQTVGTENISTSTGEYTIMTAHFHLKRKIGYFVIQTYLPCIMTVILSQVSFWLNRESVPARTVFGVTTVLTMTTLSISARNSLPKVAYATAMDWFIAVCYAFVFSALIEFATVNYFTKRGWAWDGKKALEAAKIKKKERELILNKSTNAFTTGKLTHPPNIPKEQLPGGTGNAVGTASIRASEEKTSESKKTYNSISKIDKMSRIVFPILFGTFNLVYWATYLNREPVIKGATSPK
T1 sequence (P18508 39-466): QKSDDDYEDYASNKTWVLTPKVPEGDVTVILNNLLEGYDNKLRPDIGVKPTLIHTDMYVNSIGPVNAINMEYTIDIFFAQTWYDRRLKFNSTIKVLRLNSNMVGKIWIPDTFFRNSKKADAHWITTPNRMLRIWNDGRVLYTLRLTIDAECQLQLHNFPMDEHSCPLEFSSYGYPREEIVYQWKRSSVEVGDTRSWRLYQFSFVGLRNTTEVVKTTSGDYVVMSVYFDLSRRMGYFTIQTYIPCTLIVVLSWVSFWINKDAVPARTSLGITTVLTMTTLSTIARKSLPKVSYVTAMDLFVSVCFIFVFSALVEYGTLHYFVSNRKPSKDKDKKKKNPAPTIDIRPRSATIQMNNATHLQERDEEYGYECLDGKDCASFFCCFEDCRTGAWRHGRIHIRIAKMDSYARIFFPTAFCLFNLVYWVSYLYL
Nature of the series: in vivo. It is filed as in vivo, Long Evans rats.
Description: as §1

For the next series, the system named is aged-impaired (AI) rats. As to the kind of experiment: Radial Arm Maze (RAM) behavioral task, spatial memory retention. It is filed as in vivo, rat. The note with it: 3 mg/kg ip. From the text: A Radial Arm Maze (RAM) behavioral task is one example of a cognitive test, specifically testing spacial memory (Chappell et al. Neuropharmacology 37: 481-487, 1998). The RAM apparatus consists of, e.g., eight equidistantly spaced arms. A maze arm projects from each facet of a center platform. A food well is located at the distal end of each arm. Food is used as a reward. Blocks can be positioned to prevent entry to any arm. Numerous extra maze cues surrounding the apparatus may also be provided. After habituation and training phases, spatial memory of the subjects may be tested in the RAM under control or test compound-treated conditions. As a part of the test, subjects are pretreated before trials with a vehicle control or one of a range of dosages of the test compound. At the beginning of each trial, a subset of the arms of the eight-arm maze is blocked. Subjects are allowed to obtain food on the unblocked arms to which access is permitted during this initial “information phase” of the trial. Subjects are then removed from the maze for a delay period, e.g., a 60 second delay, a 15 minute delay, a one-hour delay, a two-hour delay, a six hour delay, a 24 hour delay, or longer) between the information phase and the subsequent “retention test,” during which the barriers on the maze are removed, thus allowing access to all eight arms. […] The identity and configuration of the blocked arms vary across trials. The number of “errors” the subjects make during the retention test phase is tracked. An error occurs in the trial if the subjects entered an arm from which food had already been retrieved in the pre-delay component of the trial, or if it re-visits an arm in the post-delay session that had already been visited. A fewer number of errors would indicate better spatial memory. The number of errors made by the test subject, under various test compound treatment regimes, can then be compared for efficacy of the test compound in treating cognitive impairment associated with CNS disorders.
The effects of methyl 3,5-diphenylpyridazine-4-carboxylate on the in vivo spatial memory retention of aged-impaired (AI) rats were assessed in a Radial Arm Maze (RAM) behavioral task using vehicle control and four different dosage levels of methyl 3,5-diphenylpyridazine-4-carboxylate (0.1 mg/kg, 0.3 mg/kg, 1 mg/kg and 3 mg/kg, ip). RAM behavioral tasks were performed on eight AI rats. All five treatment conditions (vehicle and four dosage levels) were tested on all eight rats.
The RAM apparatus used consisted of eight equidistantly-spaced arms. An elevated maze arm (7 cm width×75 cm length) projected from each facet of an octagonal center platform (30 cm diameter, 51.5 cm height). Clear side walls on the arms were 10 cm high and were angled at 65° to form a trough. […]

Another series has as its target α5-containing GABAAR (Homo sapiens, UniProt P18507+P31644). As to conditions: (EC20); cited from earlier work.

Structures are written as SMILES. Where two headings read alike, the source gives them in different places.

Chain of α5-containing GABAAR (P31644 32-462): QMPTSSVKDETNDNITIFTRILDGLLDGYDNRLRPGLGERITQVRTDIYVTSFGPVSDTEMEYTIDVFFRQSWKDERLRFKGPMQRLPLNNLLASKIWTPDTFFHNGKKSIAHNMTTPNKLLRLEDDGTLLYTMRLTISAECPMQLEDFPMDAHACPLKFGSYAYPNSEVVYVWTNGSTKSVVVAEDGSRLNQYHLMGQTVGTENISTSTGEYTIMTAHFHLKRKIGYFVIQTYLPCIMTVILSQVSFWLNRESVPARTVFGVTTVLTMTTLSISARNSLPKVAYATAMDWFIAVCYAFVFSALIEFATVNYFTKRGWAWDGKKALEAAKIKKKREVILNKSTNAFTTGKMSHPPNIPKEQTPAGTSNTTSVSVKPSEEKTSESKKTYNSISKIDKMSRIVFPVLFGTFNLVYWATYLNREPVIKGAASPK
Chain of α5-containing GABAAR (P18507 40-475): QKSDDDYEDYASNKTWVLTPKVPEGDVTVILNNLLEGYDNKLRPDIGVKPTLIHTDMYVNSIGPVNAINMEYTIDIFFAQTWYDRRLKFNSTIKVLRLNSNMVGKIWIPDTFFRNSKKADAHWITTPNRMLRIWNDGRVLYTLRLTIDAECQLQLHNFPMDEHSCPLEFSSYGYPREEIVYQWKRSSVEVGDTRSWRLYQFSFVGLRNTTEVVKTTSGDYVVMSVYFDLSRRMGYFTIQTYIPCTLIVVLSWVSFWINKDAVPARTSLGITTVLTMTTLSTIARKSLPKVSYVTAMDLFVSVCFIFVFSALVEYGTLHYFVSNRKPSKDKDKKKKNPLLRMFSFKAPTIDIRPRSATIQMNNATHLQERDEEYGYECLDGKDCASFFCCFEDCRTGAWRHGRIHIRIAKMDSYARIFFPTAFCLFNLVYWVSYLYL
Chain of α5-containing GABAAR (P28472 26-473, further chain): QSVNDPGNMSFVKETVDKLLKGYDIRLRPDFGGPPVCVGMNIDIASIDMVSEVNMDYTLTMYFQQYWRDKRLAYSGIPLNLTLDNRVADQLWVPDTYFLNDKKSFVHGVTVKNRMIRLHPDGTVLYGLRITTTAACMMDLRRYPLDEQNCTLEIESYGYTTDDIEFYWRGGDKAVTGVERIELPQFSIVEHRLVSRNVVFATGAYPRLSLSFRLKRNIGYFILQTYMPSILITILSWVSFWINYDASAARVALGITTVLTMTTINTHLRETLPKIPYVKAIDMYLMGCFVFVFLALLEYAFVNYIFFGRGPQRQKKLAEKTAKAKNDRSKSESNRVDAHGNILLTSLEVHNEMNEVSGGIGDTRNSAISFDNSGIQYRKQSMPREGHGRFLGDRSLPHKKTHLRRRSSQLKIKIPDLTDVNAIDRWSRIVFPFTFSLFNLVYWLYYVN

As for `COC(=O)c1c(-c2ccccc2)cnnc1-c1ccccc1` [Methyl 3,5-diphenylpyridazine-4-carboxylate, reference compound], the “increase in hippocampal exposure” value in series [1] (dose from 0.1 to 1 mg/kg) amounted to 12 fold. Also, in series [1] (dose from 1 to 10 mg/kg), the “increase in hippocampal exposure” value is on record as ~5 fold and the “increase in plasma exposure” value was determined as 12 fold. At GABAAα5 receptor (at exposures behaviorally active in aged-impaired rats, hippocampus), the “GABAA α5 receptors occupied” value is “about 32%”. Besides, on GABAAα5 receptor (i.v., hippocampus/cerebellum ratio), the “receptor occupancy ED50, ratio method” value turned out to be 1.8 mg/kg. For the same compound, the receptor occupancy at 10 mg/kg on GABAAα5 receptor (rat, iv, 10 mg/kg, i.v., read-out: GABAA α5 receptor occupancy) is > 90%. Moreover, the “memory performance relative to vehicle control treatment” value with aged-impaired (AI) rats (two-hour delay RAM, t(7)=4.233, p=0.004) is on record as “significantly improved memory performance”. Further, in the series with aged-impaired (AI) rats (two-hour delay, AI rats), the “average no. of errors ± standard error of the mean (SEM), retention test” value is 1.31±0.40. Besides, the “α5 in vitro efficacy” value on α5-containing GABAAR is “+27”.
